Measured values published in patent publication US9399649B2, “Compounds for treating spinal muscular atrophy” (PTC Therapeutics Inc., priority 2012, dated 2016).

Key:
Smn protein = Smn protein assay in cultured cells (SMN HTRF); assay type: cell-based, human; details: SMA patient fibroblast cells (GM03813), 48 hours; for EC1.5x for Smn protein expression: 7-point concentration curve, concentration producing 1.5 times Smn protein vs DMSO vehicle; for maximum fold (Fold) increase of Smn protein: 7-point concentration data, relative to vehicle control
Procedure, shortened: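 SMA patient fibroblasts, 5,000 per well in DMEM-10% FBS, exposed 48 h at 37° C. to a 7-point, 3.16-fold compound series in triplicate. RIPA lysates read by SMN HTRF (665/620 nm, overnight at room temperature); ΔF over blank expressed as fold of vehicle.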

[1] = test system: full length SMN2 minigene mRNA containing SMN2 exon 7; assay: SMN2 minigene mRNA splicing RT-qPCR assay in cultured cells; assay type: cell-based, human; details: Homo sapiens, HEK293-H; HEK293H cells stably transfected with SMN2-A minigene, 24 hours, 7-point concentration curve; concentration giving 1.5-fold full length SMN2 mRNA vs vehicle; read-out: EC1.5x for production of full length SMN2 mRNA
Procedure, shortened: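 HEK293H cells stably carrying SMN2-A minigene treated 24 h (37 °C) with compound, 7-point 3.16-fold dilution, duplicates. Multiplex RT-qPCR on lysate with exon 7/luciferase primers and exon 7–8 junction probe (minigene-specific). Full-length transcript normalised to GAPDH by modified ΔΔCt, expressed relative to vehicle-treated cells.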

Structure (SMILES)	EC1.5x for Smn protein expression (Smn protein)	maximum fold (Fold) increase of Smn protein (Smn protein)	melting point	EC (1.5-fold) [1]
Cc1cn2cc(-c3cc4ccc(N5CCN(CCO)[C@H](C)C5)cc4c(=O)o3)nc2c(C)n1 [Cpd 142, 3-(6,8-dimethylimidazo[1,2-a]pyrazin-2-yl)-7-[(3R)-4-(2-hydroxyethyl)-3-methylpiperazin-1-yl]-1H-isochromen-1-one]	**** (an EC1.5×≦0.3 nM is indicated by four stars (****))	***** (a fold increase >1.65 is indicated by five stars (*****))	256 to 261 °C	≤ 0.1 µM
Cc1cn2cc(-c3cc4ccc(N5CCN(C6CCC6)[C@H](C)C5)cc4c(=O)o3)nc2c(C)n1 [Cpd 143, 7-[(3R)-4-cyclobutyl-3-methylpiperazin-1-yl]-3-(6,8-dimethylimidazo[1,2-a]pyrazin-2-yl)-1H-isochromen-1-one]	**** (an EC1.5×≦0.3 nM is indicated by four stars (****))	***** (a fold increase >1.65 is indicated by five stars (*****))	281 to 285 °C	≤ 0.1 µM
Cc1cn2cc(-c3cc4ccc(N5CCN(C(C)C)[C@H](C)C5)cc4c(=O)o3)nc2c(C)n1 [Cpd 144, 3-(6,8-dimethylimidazo[1,2-a]pyrazin-2-yl)-7-[(3R)-3-methyl-4-(propan-2-yl)piperazin-1-yl]-1H-isochromen-1-one]	**** (an EC1.5×≦0.3 nM is indicated by four stars (****))	***** (a fold increase >1.65 is indicated by five stars (*****))	262 to 267 °C	≤ 0.1 µM
COCCN1CCN(c2ccc3cc(-c4cn5cc(C)nc(C)c5n4)oc(=O)c3c2)C[C@H]1C [Cpd 145, 3-(6,8-dimethylimidazo[1,2-a]pyrazin-2-yl)-7-[(3R)-4-(2-methoxyethyl)-3-methylpiperazin-1-yl]-1H-isochromen-1-one]	**** (an EC1.5×≦0.3 nM is indicated by four stars (****))	***** (a fold increase >1.65 is indicated by five stars (*****))	205 to 210 °C	≤ 0.1 µM
COCCN1CCN(c2ccc3cc(-c4cn5cc(C)nc(C)c5n4)oc(=O)c3c2)C[C@@H]1C [Cpd 146, 3-(6,8-dimethylimidazo[1,2-a]pyrazin-2-yl)-7-[(3S)-4-(2-methoxyethyl)-3-methylpiperazin-1-yl]-1H-isochromen-1-one]	**** (an EC1.5×≦0.3 nM is indicated by four stars (****))	***** (a fold increase >1.65 is indicated by five stars (*****))	221 to 226 °C	0.1 to 0.3 µM
CCN1[C@H](C)CN(c2ccc3cc(-c4cn5cc(C)nc(C)c5n4)oc(=O)c3c2)C[C@@H]1C [Cpd 147, 3-(6,8-dimethylimidazo[1,2-a]pyrazin-2-yl)-7-[(3R,5S)-4-ethyl-3,5-dimethylpiperazin-1-yl]-1H-isochromen-1-one]	*** (an EC1.5× between >0.3 nM and ≦1 nM is indicated by three stars (***))	***** (a fold increase >1.65 is indicated by five stars (*****))	253 to 258 °C	≤ 0.1 µM
CCCN1[C@H](C)CN(c2ccc3cc(-c4cn5cc(C)nc(C)c5n4)oc(=O)c3c2)C[C@@H]1C [Cpd 148, 3-(6,8-dimethylimidazo[1,2-a]pyrazin-2-yl)-7-[(3R,5S)-3,5-dimethyl-4-propylpiperazin-1-yl]-1H-isochromen-1-one]	*** (an EC1.5× between >0.3 nM and ≦1 nM is indicated by three stars (***))	**** (a fold increase between >1.5 and ≦1.65 is indicated by four stars (****))	259 to 263 °C	≤ 0.1 µM
Cc1cn2cc(-c3cc4ccc(N5C[C@@H](C)N(C)[C@@H](C)C5)cc4c(=O)o3)nc2c(C)n1 [Cpd 149, 3-(6,8-dimethylimidazo[1,2-a]pyrazin-2-yl)-7-[(3R,5S)-3,4,5-trimethylpiperazin-1-yl]-1H-isochromen-1-one]	**** (an EC1.5×≦0.3 nM is indicated by four stars (****))	***** (a fold increase >1.65 is indicated by five stars (*****))	261 to 266 °C	≤ 0.1 µM
CCc1nc(C)cn2cc(-c3cc4ccc(N5CCN(C)CC5)cc4c(=O)o3)nc12 [Cpd 151, 3-(8-ethyl-6-methylimidazo[1,2-a]pyrazin-2-yl)-7-(4-methylpiperazin-1-yl)-1H-isochromen-1-one]	**** (an EC1.5×≦0.3 nM is indicated by four stars (****))	***** (a fold increase >1.65 is indicated by five stars (*****))	229 to 234 °C	≤ 0.1 µM
CCc1nc(C)cn2cc(-c3cc4ccc(N5CCN[C@@H](C)C5)cc4c(=O)o3)nc12 [Cpd 152, 3-(8-ethyl-6-methylimidazo[1,2-a]pyrazin-2-yl)-7-[(3S)-3-methylpiperazin-1-yl]-1H-isochromen-1-one]	**** (an EC1.5×≦0.3 nM is indicated by four stars (****))	***** (a fold increase >1.65 is indicated by five stars (*****))	206 to 211 °C	≤ 0.1 µM
CCc1nc(C)cn2cc(-c3cc4ccc(N5CCN[C@H](C)C5)cc4c(=O)o3)nc12 [Cpd 153, 3-(8-ethyl-6-methylimidazo[1,2-a]pyrazin-2-yl)-7-[(3R)-3-methylpiperazin-1-yl]-1H-isochromen-1-one]	**** (an EC1.5×≦0.3 nM is indicated by four stars (****))	***** (a fold increase >1.65 is indicated by five stars (*****))	208 to 213 °C	≤ 0.1 µM
CCc1nc(C)cn2cc(-c3cc4ccc(N5C[C@@H](C)N[C@@H](C)C5)cc4c(=O)o3)nc12 [Cpd 154, 7-[(3R,5S)-3,5-dimethylpiperazin-1-yl]-3-(8-ethyl-6-methylimidazo[1,2-a]pyrazin-2-yl)-1H-isochromen-1-one]	**** (an EC1.5×≦0.3 nM is indicated by four stars (****))	***** (a fold increase >1.65 is indicated by five stars (*****))	239 to 244 °C	≤ 0.1 µM
CCc1nc(C)cn2cc(-c3cc4ccc(N5CCN(C)[C@@H](C)C5)cc4c(=O)o3)nc12 [Cpd 155, 7-[(3S)-3,4-dimethylpiperazin-1-yl]-3-(8-ethyl-6-methylimidazo[1,2-a]pyrazin-2-yl)-1H-isochromen-1-one]	**** (an EC1.5×≦0.3 nM is indicated by four stars (****))	***** (a fold increase >1.65 is indicated by five stars (*****))	233 to 238 °C	≤ 0.1 µM
Cn1cc2cc(-c3cc4ccc(N5CCNCC5)cc4c(=O)o3)ccc2n1 [Cpd 156, 3-(2-methyl-2H-indazol-5-yl)-7-(piperazin-1-yl)-1H-isochromen-1-one]	**** (an EC1.5×≦0.3 nM is indicated by four stars (****))	***** (a fold increase >1.65 is indicated by five stars (*****))	268 to 270 °C	≤ 0.1 µM
